From ChEMBL document CHEMBL5724914, “Linking interpersonal differences in gut microbiota composition and drug biotransformation activity” (2024) come the findings set out here.

Series [1] in a line: The drug is tested on Z-024 corresponding to pig gut metagenome with ENA study accession number: PRJEB37062 and ENA sample accession number: ERS12561823 for biotransformation under anaerobic condition. The drug concentrations were measured over 9 timepoints collected between 0 and 24 hours of incubation by liquid-chromatography-coupled mass spectrometry (LC–MS). The settings on record: 2 µM.

A short description of series [2]: The drug is tested on Z-011 corresponding to mouse gut metagenome with ENA study accession number: PRJEB37062 and ENA sample accession number: ERS12561811 for biotransformation under anaerobic condition. The drug concentrations were measured over 9 timepoints collected between 0 and 24 hours of incubation by liquid-chromatography-coupled mass spectrometry (LC–MS). The note with it: 2 µM.

Series [3] is described as follows: The drug is tested on Z-010 corresponding to metagenome with ENA study accession number: PRJEB37062 and ENA sample accession number: ERS12561810 for biotransformation under anaerobic condition. The drug concentrations were measured over 9 timepoints collected between 0 and 24 hours of incubation by liquid-chromatography-coupled mass spectrometry (LC–MS). The settings on record: 2 µM.

The nature of series [4]: The drug is tested on Z-009 corresponding to pig gut metagenome with ENA study accession number: PRJEB37062 and ENA sample accession number: ERS12561809 for biotransformation under anaerobic condition. The drug concentrations were measured over 9 timepoints collected between 0 and 24 hours of incubation by liquid-chromatography-coupled mass spectrometry (LC–MS). The note with it: 2 µM.

A short description of series [5]: The drug is tested on Z-008 corresponding to metagenome with ENA study accession number: PRJEB37062 and ENA sample accession number: ERS12561808 for biotransformation under anaerobic condition. The drug concentrations were measured over 9 timepoints collected between 0 and 24 hours of incubation by liquid-chromatography-coupled mass spectrometry (LC–MS). The note with it: 2 µM.

Series [6] is described as follows: The drug is tested on Z-007 corresponding to rat gut metagenome with ENA study accession number: PRJEB37062 and ENA sample accession number: ERS12561807 for biotransformation under anaerobic condition. The drug concentrations were measured over 9 timepoints collected between 0 and 24 hours of incubation by liquid-chromatography-coupled mass spectrometry (LC–MS). The note with it: 2 µM.

Series [7] in a line: The drug is tested on Z-006 corresponding to mouse gut metagenome with ENA study accession number: PRJEB37062 and ENA sample accession number: ERS12561806 for biotransformation under anaerobic condition. The drug concentrations were measured over 9 timepoints collected between 0 and 24 hours of incubation by liquid-chromatography-coupled mass spectrometry (LC–MS). The note with it: 2 µM.

Series [8] is described as follows: The drug is tested on Z-003 corresponding to pig gut metagenome with ENA study accession number: PRJEB37062 and ENA sample accession number: ERS12561803 for biotransformation under anaerobic condition. The drug concentrations were measured over 9 timepoints collected between 0 and 24 hours of incubation by liquid-chromatography-coupled mass spectrometry (LC–MS). The settings on record: 2 µM.

Series [9] in a line: The drug is tested on WLS-086 corresponding to human gut metagenome with ENA study accession number: PRJEB37062 and ENA sample accession number: ERS12561752 for biotransformation under anaerobic condition. The drug concentrations were measured over 9 timepoints collected between 0 and 24 hours of incubation by liquid-chromatography-coupled mass spectrometry (LC–MS). The settings on record: 2 µM.

The nature of series [10]: The drug is tested on WLS-077 corresponding to human gut metagenome with ENA study accession number: PRJEB37062 and ENA sample accession number: ERS12561750 for biotransformation under anaerobic condition. The drug concentrations were measured over 9 timepoints collected between 0 and 24 hours of incubation by liquid-chromatography-coupled mass spectrometry (LC–MS). The settings on record: 2 µM.

Series [11] in a line: The drug is tested on WLS-052 corresponding to human gut metagenome with ENA study accession number: PRJEB37062 and ENA sample accession number: ERS12561747 for biotransformation under anaerobic condition. The drug concentrations were measured over 9 timepoints collected between 0 and 24 hours of incubation by liquid-chromatography-coupled mass spectrometry (LC–MS). The settings on record: 2 µM.

Series [12] can be described thus: The drug is tested on WLS-007 corresponding to human gut metagenome with ENA study accession number: PRJEB37062 and ENA sample accession number: ERS12561742 for biotransformation under anaerobic condition. The drug concentrations were measured over 9 timepoints collected between 0 and 24 hours of incubation by liquid-chromatography-coupled mass spectrometry (LC–MS). The settings on record: 2 µM.

The conditions of series [13]: human gut metagenome, 24 h, 2 µM.
The conditions of series [14]: human gut metagenome, 24 h, 2 µM. This is another data set of the same source.
For series [15] the following is noted: human gut metagenome, 24 h, 2 µM. The source holds these as a separate data set.
For series [16] the following is noted: human gut metagenome, 24 h, 2 µM. This is another data set of the same source.
The conditions of series [17]: human gut metagenome, 24 h, 2 µM. This is another data set of the same source.
For series [18] the following is noted: human gut metagenome, 24 h, 2 µM. This is another data set of the same source.
The conditions of series [19]: human gut metagenome, 24 h, 2 µM. The source holds these as a separate data set.
The conditions of series [20]: human gut metagenome, 24 h, 2 µM. This is another data set of the same source.

The structures appear in SMILES notation.
Also: call rule not given here.

In the case of `CCN1CCCC1CNC(=O)c1cc(S(=O)(=O)CC)c(N)cc1OC` (stereo not given) [AMISULPRIDE], the “Bacterial Biotransformation” value in [1], in [2], in series [3], in [4], in series [5] and in series [6] was “Compound NOT metabolized” each time. Further, the “Bacterial Biotransformation” value is reported as “Compound NOT metabolized” in series [7]; “Compound metabolized” in series [8]; “Compound metabolized” in series [9]; “Compound NOT metabolized” in series [10]; “Compound NOT metabolized” in series [11]; “Compound NOT metabolized” in [12]. In addition, the “Bacterial Biotransformation” value was “Compound NOT metabolized” in series [13]; “Compound metabolized” in series [14]; “Compound NOT metabolized” in [15]; “Compound NOT metabolized” in series [16]; “Compound NOT metabolized” in series [17]; “Compound NOT metabolized” in series [18]. For the same molecule, the “Bacterial Biotransformation” value in [19] and in series [20] was “Compound metabolized” each time.
For the molecule `CN1[C@@H]2CC[C@H]1C[C@@H](OC(=O)c1c[nH]c3ccccc13)C2` [TROPISETRON], the “Bacterial Biotransformation” value in [1], in [2], in series [3], in [4], in series [5] and in [6] was “Compound NOT metabolized” in each case. Further, the “Bacterial Biotransformation” value in series [7] was “Compound NOT metabolized”; in [8], “Compound NOT metabolized”; in [9], “Compound metabolized”; in series [10], “Compound NOT metabolized”; in [11], “Compound NOT metabolized”; in series [12], “Compound NOT metabolized”. The “Bacterial Biotransformation” value in [13], in [14], in series [15], in series [16], in series [17] and in series [18] was “Compound NOT metabolized” in each case. Also, the “Bacterial Biotransformation” value in series [19] and in series [20] was “Compound NOT metabolized” each time.
As to `CCOC(=O)[C@H](CCc1ccccc1)N[C@@H](C)C(=O)N1Cc2ccccc2C[C@H]1C(=O)O`, the “Bacterial Biotransformation” value in [1], in [2], in series [3], in [4], in [5] and in [6] was “Compound NOT metabolized” each time. For the same molecule, the “Bacterial Biotransformation” value in series [7] is “Compound NOT metabolized”; in series [8], “Compound metabolized”; in [9], “Compound metabolized”; in series [10], “Compound metabolized”; in [11], “Compound metabolized”; in [12], “Compound metabolized”. The “Bacterial Biotransformation” value in series [13] is given as “Compound NOT metabolized”; in series [14], “Compound metabolized”; in series [15] it was “Compound metabolized”; in [16], “Compound metabolized”; in [17], “Compound metabolized”; in [18], “Compound metabolized”. The “Bacterial Biotransformation” value in series [19] and in series [20] was “Compound metabolized” in each case.
